# Assay: Experimental stability/excipient compatibility study of prototype formulation
# Format: physicochemical
# Details: with Vitamin E polyethylene glycol succinate and gelatin capsule shell; 25° C./60% RH and 40° C./75% RH over a 1-month period
# Excerpt: A homogeneous solution of Compound I is formed with the Vitamin E polyethylene glycol succinate (TPGS), which enables good uniformity of content to be achieved at low strengths.
structure (smiles),measurement,value
Cc1c(-c2ccnc(C(F)(F)F)c2)ncn1CC(=O)Nc1ccc(-c2cnccn2)cn1 [Compound I],Degradation of Compound I in prototype formulation,No significant degradation
